Test system: Genes belonging to other category
Test: DNA chip mRNA expression in yeast, genes belonging to other category (Table 9)
Format: cell-based, Saccharomyces cerevisiae S288C
Summary of the method: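 Untreated cultures served as reference for log-phase S288C yeast given a growth-inhibiting, non-lethal toxicant dose for 2 h at 25° C. in YPD. Gene expression was measured on a whole-genome DNA chip from Cy3/Cy5-labeled cDNA.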

Measured: The level of expressed mRNA in the presence of chemical substance/The level of expressed mRNA in the absence of chemical substance

CCCCC[C@H](O)CC(=O)CCc1ccc(O)c(OC)c1 [(13), gingerol]
2.3: yeast gene YHR071W | yeast gene YNL006W | yeast gene YOR117W | yeast gene YPL149W
2.6: yeast gene YBL041W | yeast gene YMR314W | yeast gene YPR108W
1.8: yeast gene YBL043W | yeast gene YDR518W | yeast gene YJL089W | yeast gene YOL013C
1.9: yeast gene YBR201W | yeast gene YCR088W | yeast gene YKL039W | yeast gene YMR276W
4.3: yeast gene YDL126C
2.9: yeast gene YBL005W-A | yeast gene YER012W | yeast gene YLR136C
3.1: yeast gene YDR055W
1.7: yeast gene YDR388W | yeast gene YGL229C | yeast gene YGR136W | yeast gene YKL008C | yeast gene YLR090W | yeast gene YLR251W | yeast gene YMR262W | yeast gene YNR035C | yeast gene YOR381W
1.1: yeast gene YCL027W | yeast gene YDR085C | yeast gene YDR115W | yeast gene YHR004C | yeast gene YOR355W
1.3: yeast gene YCR004C | yeast gene YCR071C | yeast gene YER136W | yeast gene YJR122W | yeast gene YKL013C | yeast gene YKL041W | yeast gene YKL190W | yeast gene YLL051C | yeast gene YLR093C | yeast gene YMR051C | yeast gene YOR149C | yeast gene YPL089C
1.6: yeast gene YDR104C | yeast gene YDR315C | yeast gene YEL066W | yeast gene YER130C | yeast gene YJL073W | yeast gene YKL139W | yeast gene YMR139W | yeast gene YMR226C
1.0: yeast gene YDR084C | yeast gene YGL158W
2.1: yeast gene YKL193C | yeast gene YMR219W | yeast gene YMR275C | yeast gene YNL007C
0.5: yeast gene YDL212W
1.5: yeast gene YDR481C | yeast gene YFL043C | yeast gene YJR099W | yeast gene YJR125C | yeast gene YKR014C | yeast gene YMR104C | yeast gene YNR007C | yeast gene YPL203W
2.0: yeast gene YAL007C | yeast gene YBR109C | yeast gene YDL008W | yeast gene YDL238C | yeast gene YGR257C | yeast gene YNL223W
3.2: yeast gene YDR358W | yeast gene YKL165C
0.4: yeast gene YEL042W | yeast gene YIL123W
0.1: yeast gene YKL096W
4.8: yeast gene YLR120C
0.6: yeast gene YFL022C | yeast gene YOL104C | yeast gene YPL255W
1.2: yeast gene YGR189C | yeast gene YHR142W | yeast gene YLR250W | yeast gene YNL214W | yeast gene YOR181W | yeast gene YOR383C
3.0: yeast gene YCL020W | yeast gene YOL016C
2.8: yeast gene YLR327C | yeast gene YNR010W
2.2: yeast gene YMR004W | yeast gene YNL093W | yeast gene YNL333W | yeast gene YOR185C | yeast gene YPL018W
4.0: yeast gene YDL097C
